According to US20240158446A1, “CYCLIC COMPOUND HAVING SELECTIVE INHIBITORY ACTION ON KRAS OVER HRAS AND NRAS” (CHUGAI SEIYAKU KABUSHIKI KAISHA, priority 2021, published 2024):
Where two headings read alike, the source gives them in different places. *1 amine or outer side, *2 acyl side, *3 side chain or, on linkers, in order; H or OH if unused. Where a SMILES comes first, the peptide text is derived from it. Bridges are numbered along the chain shown (N, C = ends). [ ]: non-standard residue; d: D form. The star is where a group is joined. hPhe(3-Cl-4-CF3) = N[C@@H](CCc1ccc(C(F)(F)F)c(Cl)c1)C(=O)O; X27 = O=C([C@H](Cc1ccc(C(F)(F)F)cc1)N(CC1CC1)[*:1])[*:2]; NMeGly(cPent) = CN[C@H](C(=O)O)C1CCCC1; NMeD = CN[C@@H](CC(=O)O)C(=O)O; NMeL = CN[C@@H](CC(C)C)C(=O)O; Morpholide = C1CN(*)CCO1; NMeA = CN[C@@H](C)C(=O)O; Ac5c = NC1(C(=O)O)CCCC1; Aze = O=C(O)[C@@H]1CCN1; Sar = CNCC(=O)O

How the values were obtained:
[1] = target: GDP-bound HRAS wild-type protein (Homo sapiens, UniProt P01112); assay: Binding to HRAS by surface plasmon resonance (SPR), Single Cycle Kinetics; settings: for HRAS/KRAS (ratio of KD value with respect to HRAS to KD value with respect to KRAS) / HRAS/KRAS (ratio of KD value for HRAS to KD value for KRAS): SPR, GDP-bound HRAS wild-type protein vs GDP-bound KRAS wild-type protein; for HRAS/KRAS (ratio of KD value with respect to GDP-bound HRAS wild-type protein to KD value with respect to KRAS): SPR KD ratio HRAS/KRAS, class symbols
[2] = target: GDP-bound NRAS wild-type protein (Homo sapiens, UniProt P01111); assay: Binding to NRAS by surface plasmon resonance (SPR), Single Cycle Kinetics; settings: for NRAS/KRAS (ratio of KD value with respect to NRAS to KD value with respect to KRAS) / NRAS/KRAS (ratio of KD value for NRAS to KD value for KRAS): SPR, GDP-bound NRAS wild-type protein vs GDP-bound KRAS wild-type protein; for NRAS/KRAS (ratio of KD value with respect to GDP-bound NRAS wild-type protein to KD value with respect to KRAS): SPR KD ratio NRAS/KRAS, class symbols
[3] = target: GDP-bound KRAS wild-type protein (Homo sapiens, UniProt P01116); assay: Binding to KRAS by surface plasmon resonance (SPR), Single Cycle Kinetics; settings: GDP-bound KRAS wild-type protein, read-out: KRAS KD
[4] = SPR Single Cycle Kinetics, 1:1 binding model

Chain of GDP-bound HRAS wild-type protein (P01112 whole entry): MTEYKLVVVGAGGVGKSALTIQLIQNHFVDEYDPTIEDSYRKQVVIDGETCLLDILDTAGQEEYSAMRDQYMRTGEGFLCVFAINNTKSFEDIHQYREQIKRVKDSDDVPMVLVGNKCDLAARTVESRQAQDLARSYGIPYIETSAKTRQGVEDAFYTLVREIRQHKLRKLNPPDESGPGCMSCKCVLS
Chain of GDP-bound KRAS wild-type protein (P01116 whole entry): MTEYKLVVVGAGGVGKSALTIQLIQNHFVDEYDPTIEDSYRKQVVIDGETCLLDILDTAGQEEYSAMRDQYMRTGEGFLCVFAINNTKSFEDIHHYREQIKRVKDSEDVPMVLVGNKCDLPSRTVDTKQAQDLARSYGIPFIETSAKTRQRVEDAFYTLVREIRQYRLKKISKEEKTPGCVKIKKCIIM
Chain of GDP-bound NRAS wild-type protein (P01111 whole entry): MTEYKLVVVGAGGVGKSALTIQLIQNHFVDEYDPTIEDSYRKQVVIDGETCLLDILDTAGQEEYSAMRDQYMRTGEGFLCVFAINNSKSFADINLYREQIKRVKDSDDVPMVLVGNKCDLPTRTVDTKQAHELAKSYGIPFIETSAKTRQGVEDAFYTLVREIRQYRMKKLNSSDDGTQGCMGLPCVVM

Kd [3, 4] [nM]	Kd ([3]; SPR, Single Cycle Kinetics) [nM]	Structure (SMILES)	HRAS/KRAS (ratio of KD value for HRAS to KD value for KRAS) [1]	NRAS/KRAS (ratio of KD value for NRAS to KD value for KRAS) [2]	HRAS/KRAS (ratio of KD value with respect to GDP-bound HRAS wild-type protein to KD value with respect to KRAS) [1]	NRAS/KRAS (ratio of KD value with respect to GDP-bound NRAS wild-type protein to KD value with respect to KRAS) [2]	further results
	0.49	CCO[C@@H]1C[C@H]2C(=O)NC3(CC(C)(C)C3)C(=O)N(C)[C@@H](C(CC)CC)C(=O)N(C)[C@H](C(=O)N3CCCC3)CC(=O)N(C)[C@@H](C)C(=O)N[C@@H]([C@@H](C)CC)C(=O)N(C)CC(=O)N(C)[C@H]3C/C=C\CCN(C3=O)[C@@H](Cc3ccc(C(F)(F)F)cc3)C(=O)N(C)CC(=O)N[C@@H](CCc3ccc(Cl)c(Cl)c3)C(=O)N2C1 [PP2178]	A (a compound having 10 or more and less than 20 is denoted as A)	AA (a compound having 20 or more is denoted as AA)			
0.16		CC[C@H](C)[C@@H]1NC(=O)[C@@H]2CCC/C=C/c3ccc(cc3)C[C@@H](C(=O)N(C)CC(=O)N[C@@H](CCc3ccc(Cl)c(Cl)c3)C(=O)N3C[C@H](OC(C)C)C[C@H]3C(=O)NC3(CC(C)(C)C3)C(=O)N(C)[C@@H](C3CCCC3)C(=O)N(C)[C@H](C(=O)N3CCCC3)CC(=O)N2C)N2CC/C=C\C[C@@H](C2=O)N(C)C(=O)CN(C)C1=O [PP2596]			A (a compound having 10 or more and less than 20 is denoted as A)	A (a compound having 10 or more and less than 20 is denoted as A)	
	0.66	CCO[C@@H]1C[C@H]2C(=O)NC3(CC(C)(C)C3)C(=O)N(C)[C@@H](C(CC)CC)C(=O)N(C)[C@H](C(=O)N(C)C)CC(=O)N(C)[C@@H](CC3CCC3)C(=O)N[C@@H]([C@@H](C)CC)C(=O)N(C)CC(=O)N(C)[C@H]3C/C=C\CCN(C3=O)[C@@H](Cc3ccc(C(F)(F)F)cc3)C(=O)N(C)CC(=O)N[C@@H](CCc3ccc(Cl)c(Cl)c3)C(=O)N2C1 [PP2180]	A (a compound having 10 or more and less than 20 is denoted as A)	AA (a compound having 20 or more is denoted as AA)			
0.87		CCO[C@@H]1C[C@H]2C(=O)NC3(CCC3)C(=O)N(C)[C@@H](C3CCCC3)C(=O)N(C)[C@H](C(=O)N(C)C)CC(=O)N(C)[C@@H](CC3CCCC3)C(=O)N[C@@H]([C@@H](C)CC)C(=O)N(C)CC(=O)N(C)[C@H]3C/C=C\CCN(C3=O)[C@@H](Cc3ccc(C)cc3)C(=O)N(C)CC(=O)N[C@@H](CCc3ccc(C4CC4)c(F)c3)C(=O)N2C1 [PP2683]			A (a compound having 10 or more and less than 20 is denoted as A)	A (a compound having 10 or more and less than 20 is denoted as A)	
	0.48	CCO[C@@H]1C[C@H]2C(=O)NC3(CC(C)(C)C3)C(=O)N(C)[C@@H](C(CC)CC)C(=O)N(C)[C@H](C(=O)N3CCCC3)CC(=O)N(C)[C@@H](COC)C(=O)N[C@@H]([C@@H](C)CC)C(=O)N(C)CC(=O)N(C)[C@H]3C/C=C\CCN(C3=O)[C@@H](Cc3ccc(C)cc3)C(=O)N(C)CC(=O)N[C@@H](CCc3ccc(C(F)(F)F)c(Cl)c3)C(=O)N2C1 [PP2144]	A (a compound having 10 or more and less than 20 is denoted as A)	AA (a compound having 20 or more is denoted as AA)			

Further lines, the compound ahead of its results:

Structure (SMILES)	Kd [3, 4] [nM]	Kd ([3]; SPR, Single Cycle Kinetics) [nM]	HRAS/KRAS (ratio of KD value for HRAS to KD value for KRAS) [1]	NRAS/KRAS (ratio of KD value for NRAS to KD value for KRAS) [2]	HRAS/KRAS (ratio of KD value with respect to GDP-bound HRAS wild-type protein to KD value with respect to KRAS) [1]	NRAS/KRAS (ratio of KD value with respect to GDP-bound NRAS wild-type protein to KD value with respect to KRAS) [2]	further results
CC[C@H](C)[C@@H]1NC(=O)[C@H](CC(C)C)N(C)C(=O)C[C@@H](C(=O)N2CCOCC2)N(C)C(=O)[C@H](C2CCCC2)N(C)C(=O)C2(COC2)NC(=O)[C@@H]2CCCN2C(=O)[C@H](CCc2cc(F)c(C(F)(F)F)c(F)c2)NC(=O)CN(C)C(=O)[C@H](Cc2ccc(C(F)(F)F)cc2)N2CCCC[C@@H](C2=O)N(C)C(=O)CN(C)C1=O [PP0563]	0.1						HRAS/KRAS (ratio of KD value with respect to HRAS to KD value with respect to KRAS) [1]: B (a compound having 3 or more and less than 10 is denoted as B); NRAS/KRAS (ratio of KD value with respect to NRAS to KD value with respect to KRAS) [2]: B (a compound having 3 or more and less than 10 is denoted as B)
CCO[C@@H]1C[C@H]2C(=O)NC3(CCC3)C(=O)N(C)[C@@H](C3CCCC3)C(=O)N(C)[C@H](C(=O)N(C)C)CC(=O)N(C)[C@@H](C)C(=O)N[C@@H]([C@@H](C)CC)C(=O)N(C)CC(=O)N(C)[C@H]3CCCCCN(C3=O)[C@@H](Cc3ccc(C(F)(F)F)cc3)C(=O)N(C)CC(=O)N[C@@H](CCc3cc(F)c(C(F)(F)F)c(F)c3)C(=O)N2C1 [PP0476]	0.2						HRAS/KRAS (ratio of KD value with respect to HRAS to KD value with respect to KRAS) [1]: B (a compound having 3 or more and less than 10 is denoted as B); NRAS/KRAS (ratio of KD value with respect to NRAS to KD value with respect to KRAS) [2]: B (a compound having 3 or more and less than 10 is denoted as B)
CC[C@H](C)[C@@H]1NC(=O)[C@H](CC2CC2)N(C)C(=O)C[C@@H](C(=O)N2CCCC2)N(C)C(=O)[C@H](C2CCCC2)N(C)C(=O)C2(CCCC2)NC(=O)[C@@H]2C[C@@H](F)CN2C(=O)[C@H](CCc2cc(F)c(C(F)(F)F)c(F)c2)NC(=O)CN(C)C(=O)[C@H](Cc2ccc(C(F)(F)F)cc2)N2CC/C=C\C[C@@H](C2=O)N(C)C(=O)CN(C)C1=O [PP1503]							HRAS/KRAS (ratio of KD value for HRAS to KD value for KRAS) ([1]; KD ratio class): A (a compound having 10 or more and less than 20 is denoted as A); NRAS/KRAS (ratio of KD value for NRAS to KD value for KRAS) ([2]; KD ratio class): A (a compound having 10 or more and less than 20 is denoted as A); Kd ([3]; SPR, Single Cycle Kinetics, 1:1 binding model): 0.11 nM
CC[C@H](C)[C@@H]1NC(=O)[C@H](C)N(C)C(=O)C[C@@H](C(=O)N2CCOCC2)N(C)C(=O)[C@H](C2CCCC2)N(C)C(=O)C2(CCCC2)NC(=O)[C@@H]2CCCN2C(=O)[C@H](CCc2cc(F)c(C(F)(F)F)c(F)c2)NC(=O)CN(C)C(=O)[C@H](Cc2ccc(C(F)(F)F)cc2)N2CCCCC[C@@H](C2=O)N(C)C(=O)CN(C)C1=O [PP0487]	1.7						HRAS/KRAS (ratio of KD value with respect to HRAS to KD value with respect to KRAS) [1]: B (a compound having 3 or more and less than 10 is denoted as B); NRAS/KRAS (ratio of KD value with respect to NRAS to KD value with respect to KRAS) [2]: B (a compound having 3 or more and less than 10 is denoted as B)
CCO[C@@H]1C[C@H]2C(=O)NC3(CCC3)C(=O)N(C)[C@@H](C3CCCC3)C(=O)N(C)[C@H](C(=O)N(C)CC)CC(=O)N(C)[C@@H](CC3CCC3)C(=O)N[C@@H]([C@@H](C)CC)C(=O)N(C)CC(=O)N(C)[C@H]3C/C=C\CCN(C3=O)[C@@H](Cc3ccc(C(F)(F)F)cc3)C(=O)N(C)CC(=O)N[C@@H](CCc3ccc(C(F)(F)F)c(OC)c3)C(=O)N2C1 [PP2825]	0.12				B (a compound having 3 or more and less than 10 is denoted as B)	A (a compound having 10 or more and less than 20 is denoted as A)	
CCC[C@H]1C(=O)N[C@@H]([C@@H](C)CC)C(=O)N(C2CC2)CC(=O)N(C)[C@H]2C/C=C\CCN(C2=O)[C@@H](Cc2ccc(C(F)(F)F)cc2)C(=O)N(C)CC(=O)N[C@@H](CCc2ccc(Cl)c(Cl)c2)C(=O)N2C[C@H](OCC)C[C@H]2C(=O)NC2(CC(C)(C)C2)C(=O)N(C)[C@@H](CC2CC2)C(=O)N(C)[C@H](C(=O)N(C)C)CC(=O)N1C [PP2817]	2.4				A (a compound having 10 or more and less than 20 is denoted as A)	A (a compound having 10 or more and less than 20 is denoted as A)	
CC[C@H](C)[C@@H]1NC(=O)[C@H](CC(C)C)N(C)C(=O)C[C@@H](C(=O)N2CCOCC2)N(C)C(=O)[C@H](C2CCCC2)N(C)C(=O)C2(CCCC2)NC(=O)[C@@H]2CCCN2C(=O)[C@H](CCc2ccc(C(F)(F)F)c(Cl)c2)NC(=O)CN(C)C(=O)[C@H](Cc2ccc(C(F)(F)F)cc2)N(CC2CC2)C(=O)[C@@H]2CCN2C(=O)[C@H](C)N(C)C1=O [PP0108] ([NMeL]I[NMeA][Aze][X27][Sar][hPhe(3-Cl-4-CF3)]P[Ac5c][NMeGly(cPent)][NMeD]-Morpholide; lactam N-11)	0.2		C (A compound having a KD ratio of 0.1 or more and less than 3 is denoted as C)	C (A compound having a KD ratio of 0.1 or more and less than 3 is denoted as C)			
C=CC[C@H]1C(=O)N[C@@H]([C@@H](C)CC)C(=O)N(C)CC(=O)N(C)[C@H]2C/C=C\CCN(C2=O)[C@@H](Cc2ccc(C(F)(F)F)cc2)C(=O)N(C)CC(=O)N[C@@H](CCc2cc(F)c(C(F)(F)F)c(F)c2)C(=O)N2C[C@H](OCC)C[C@H]2C(=O)NC2(CCC2)C(=O)N(C)[C@@H](C2CCCC2)C(=O)N(C)[C@H](C(=O)N(C)C)CC(=O)N1C [PP1114, (2S,8S,12R,14S,20S,23S,27S,30S,36S,38Z)-27-allyl-20-cyclopentyl-8-[2-[3,5-difluoro-4-(trifluoromethyl)phenyl]ethyl]-12-ethoxy-N,N,4,19,22,26,32,35-octamethyl-30-[(1S)-1-methylpropyl]-3,6,9,15,18,21,25,28,31,34,42-undecaoxo-2-[[4-(trifluoromethyl)phenyl]methyl]spiro[1,4,7,10,16,19,22,26,29,32,35-undecazatricyclo[34.5.1.0^10,14]dotetracont-38-ene-17,1′-cyclobutane]-23-carboxamide]		0.054	A (a compound having 10 or more and less than 20 is denoted as A)	A (a compound having 10 or more and less than 20 is denoted as A)			
